# Tests used:
# [1] = Body composition (lean mass by DXA) over 10 days of bed rest (clinical study); type: in vivo, human; conditions: over 10 day bed rest, healthy elderly subjects
# Text: The 24 healthy subjects initially involved in the study were randomized into two groups. Subjects in the treatment group received two β-hydroxy-β-methylbutyrate (HMB) sachets containing 1.5 grams of Ca-HMB (TSI, Salt Lake City, Utah), 4 grams of maltodextrin, and 200 milligrams of calcium with additional sweetener and flavoring agents. Subjects in the control group received two control sachets that were identical to the HMB sachets with the exclusion Ca-HMB. This study was a double-blinded study. Neither the investigators nor the subjects were informed of the identity of any of the study products during the clinical portion of the study. […]
# After a diet stabilization of 5 days (ambulatory period), subjects remained in bed continuously for 10 days. […] Subjects were constantly monitored by nursing staff and received a daily physical examination by the study physician.
# Body weight was measured at baseline and after bed rest to the nearest 0.1 kilogram on an Ohaus scale (Ohaus Corporation, model 15S, Florham Park, N.J.). Nude body weight was calculated as total body weight minus hospital robe weight. Body height was measured to the nearest 0.1 cm without shoes using a stadiometer. Body mass index (BMI) was calculated as weight/height^2 (kg/m^2). […]
# Myoglobin = assay: Serum myoglobin levels before and after 10 days of bed rest (clinical study, RBM Human DiscoveryMAP); type: in vivo
# Experimental: Example 3 describes a clinical study that was conducted to evaluate the effects of 10 days of bed rest on healthy elderly subjects. The exemplary methods are based, at least in part, on inventors' discovery that serum myoglobin levels change by statistically significant amounts in 18 healthy elderly subjects undergoing 10 days of bed rest. The exemplary methods are also based, at least in part, on inventors' discovery that intervention with HMB altered the change in serum myoglobin levels.
# The 24 healthy subjects initially involved in the study were randomized into two groups. Subjects in the treatment group received two β-hydroxy-β-methylbutyrate (HMB) sachets containing 1.5 grams of Ca-HMB (TSI, Salt Lake City, Utah), 4 grams of maltodextrin, and 200 milligrams of calcium with additional sweetener and flavoring agents. Subjects in the control group received two control sachets that were identical to the HMB sachets with the exclusion Ca-HMB. This study was a double-blinded study. Neither the investigators nor the subjects were informed of the identity of any of the study products during the clinical portion of the study. Subjects were instructed to consume a sachet twice daily by mixing a sachet into a non-caloric, non-caffeinated, non-carbonated, non-milk-based beverage of their choice. Treatment with HMB or Control was initiated 5 days prior to bed rest and was continued until the end of the 10 day bed rest period.
# After a diet stabilization of 5 days (ambulatory period), subjects remained in bed continuously for 10 days. While confined to bed rest, subjects were allowed to use the bedside commode for urination or were taken in a wheelchair for toileting. Subjects were given the option of taking a sponge bath or showering in a wheelchair. Prophylactic measures were taken to detect and prevent deep vein thrombosis including a blood D-dimer test followed by an ultrasound examination if D-dimer test was positive, passive range of motion exercise during bed rest, the use of TED hose and SCD over the bed rest period. Subjects were offered medication to help mitigate reflux problems associated with being supine. Subjects were constantly monitored by nursing staff and received a daily physical examination by the study physician.
# Fasted blood samples were collected from subjects on Day 1 of bed rest and at the end of bed rest for measurement of biomarkers, including myoglobin.
# Rules Based Medicine (Myriad RBM, Inc., Austin, Tex.) data generated from the RBM Human DiscoveryMAP v1.0 consists of n=187 biomarkers measured in serum collected at two time points, pre-bed rest and post-bed rest from 18 elderly subjects. The distribution of each marker was evaluated. Each marker has a least detectable dose (LDD) value, defined as the mean+3 standard deviations (SD) of 20 blank samples. For any subject whose marker result was <LDD, the LDD value as provided by RBM was imputed. If the marker result was >LDD, the original result was used. Any marker in which >30% of all subject's results were imputed was excluded from further statistical analyses. Of the initial n=187 RBM markers, n=63 markers from the RBM dataset were excluded from further analyses, leaving n=124 markers for evaluation.
# The Control group was examined to determine the biomarkers that changed over bed rest. Individual univariate dependent t-tests were performed on each of the 124 markers. There were a total of 8 participants who had matched data over bed rest within the Control group.
# In order to assess the changes in the markers over bed rest that may be mediated by HMB intervention, individual univariate ANCOVA analyses were subsequently performed on each of the 13 (unadjusted) significant markers from the multiple dependent t-tests. Using a Bonferonni adjusted p-value of 0.0038 (0.05/13), 10 markers, including myoglobin, were significant.
# [2] = 10 subjects treated with HMB, after 10 days of bed rest
# [3] = serum, pre- to post-bed rest (10 days), n = 10
compound,measurement,setting,value
"CC(C)(O)CC(=O)O [HMB, β-hydroxy-β-methylbutyrate]",average loss of total lean mass,[1]; p=0.42 paired t-test,-0.17 ± 0.19 kg
same,average loss of leg lean mass,[1]; p=0.65 paired t-test,-0.08 ± 0.17 kg
same,average decrease in blood levels of myoglobin,Myoglobin; [2],10.2 ng/mL
same,decrease in blood levels of myoglobin (percent),Myoglobin; [2],19%
same,Myoglobin Pre-bed rest Mean,"Myoglobin; serum, healthy elderly subjects, n = 10, 1.5 g Ca-HMB sachet twice daily from 5 days prior to bed rest, Day 1 of bed rest",49.3 ng/mL
same,Myoglobin Post-bed rest Mean,"Myoglobin; serum, healthy elderly subjects, n = 10, 1.5 g Ca-HMB sachet twice daily, end of 10 day bed rest",39.1 ng/mL
same,Myoglobin % Change,Myoglobin; [3],−19 ± 6%
same,Myoglobin Change,Myoglobin; [3],-10.2 ± 6.4 ng/mL

# Source: US20150057346A1, “METHODS OF MAINTAINING INTRAMUSCULAR MYOGLOBIN LEVELS, MAINTAINING MAXIMAL AEROBIC CAPACITY, AND ENHANCING THE OXIDATIVE CAPACITY OF MUSCLE IN A SUBJECT” (ABBOTT LABORATORIES, priority 2013, published 2015)
